From ChEMBL document CHEMBL4732252, “Generating Selective Leads for Mer Kinase Inhibitors-Example of a Comprehensive Lead-Generation Strategy” (J Med Chem, 2021)

What was measured:
[1] = molecular target: T1, Tyrosine-protein kinase Mer (Homo sapiens) (UniProt Q12866); experiment: Inhibition of 6His/thrombin cleavage site-fused Avi-tagged dephosphorylated MER (unknown origin) (R528 to M999 residues) at 1 uM using Axltide (CKKSRGDYMTMQJG-acid) peptide as substrate preincubated for 30 mins followed by substrate and ATP addition at Km concentration measured after 120 mins by RapidFire LC-MS analysis relative to control; settings: time 150.0 min
T1 sequence (whole entry): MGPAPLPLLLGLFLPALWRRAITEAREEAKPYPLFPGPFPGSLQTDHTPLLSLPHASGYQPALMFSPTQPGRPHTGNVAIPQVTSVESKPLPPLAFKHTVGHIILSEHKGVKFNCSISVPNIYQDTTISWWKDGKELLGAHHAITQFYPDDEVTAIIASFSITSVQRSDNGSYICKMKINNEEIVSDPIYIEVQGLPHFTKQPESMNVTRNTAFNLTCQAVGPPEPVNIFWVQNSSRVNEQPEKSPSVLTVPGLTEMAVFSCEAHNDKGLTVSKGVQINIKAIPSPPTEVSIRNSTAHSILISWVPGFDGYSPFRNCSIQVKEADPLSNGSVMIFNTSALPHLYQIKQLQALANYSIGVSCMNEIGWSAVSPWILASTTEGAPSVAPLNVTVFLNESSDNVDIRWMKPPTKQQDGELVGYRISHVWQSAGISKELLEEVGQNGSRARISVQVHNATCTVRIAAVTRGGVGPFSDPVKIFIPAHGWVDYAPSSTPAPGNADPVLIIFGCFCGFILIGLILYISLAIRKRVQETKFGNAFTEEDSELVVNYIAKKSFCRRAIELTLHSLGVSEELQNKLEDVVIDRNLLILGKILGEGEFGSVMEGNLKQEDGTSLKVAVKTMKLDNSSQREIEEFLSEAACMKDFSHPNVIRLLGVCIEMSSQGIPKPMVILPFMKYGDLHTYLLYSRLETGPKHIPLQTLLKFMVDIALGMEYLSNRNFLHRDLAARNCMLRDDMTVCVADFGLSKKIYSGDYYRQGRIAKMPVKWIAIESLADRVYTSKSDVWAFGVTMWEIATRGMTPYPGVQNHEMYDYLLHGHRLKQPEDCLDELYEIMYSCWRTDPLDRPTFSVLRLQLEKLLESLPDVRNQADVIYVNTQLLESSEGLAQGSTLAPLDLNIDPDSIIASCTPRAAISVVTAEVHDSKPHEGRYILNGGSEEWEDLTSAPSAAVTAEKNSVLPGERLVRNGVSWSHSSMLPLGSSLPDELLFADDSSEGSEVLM

[2] = molecular target: Tyrosine-protein kinase receptor UFO (Homo sapiens) (UniProt P30530); experiment: Inhibition of GST-tagged AXL (unknown origin) ([…] residues) at 1 uM using Axltide (CKKSRGDYMTMQJG-acid) peptide as substrate preincubated for 30 mins followed by substrate and ATP addition at Km concentration measured after 180 mins by RapidFire LC-MS analysis relative to control; settings: time 210.0 min
Tyrosine-protein kinase receptor UFO (Homo sapiens), sequence (P30530 whole entry, the tested form may be a part): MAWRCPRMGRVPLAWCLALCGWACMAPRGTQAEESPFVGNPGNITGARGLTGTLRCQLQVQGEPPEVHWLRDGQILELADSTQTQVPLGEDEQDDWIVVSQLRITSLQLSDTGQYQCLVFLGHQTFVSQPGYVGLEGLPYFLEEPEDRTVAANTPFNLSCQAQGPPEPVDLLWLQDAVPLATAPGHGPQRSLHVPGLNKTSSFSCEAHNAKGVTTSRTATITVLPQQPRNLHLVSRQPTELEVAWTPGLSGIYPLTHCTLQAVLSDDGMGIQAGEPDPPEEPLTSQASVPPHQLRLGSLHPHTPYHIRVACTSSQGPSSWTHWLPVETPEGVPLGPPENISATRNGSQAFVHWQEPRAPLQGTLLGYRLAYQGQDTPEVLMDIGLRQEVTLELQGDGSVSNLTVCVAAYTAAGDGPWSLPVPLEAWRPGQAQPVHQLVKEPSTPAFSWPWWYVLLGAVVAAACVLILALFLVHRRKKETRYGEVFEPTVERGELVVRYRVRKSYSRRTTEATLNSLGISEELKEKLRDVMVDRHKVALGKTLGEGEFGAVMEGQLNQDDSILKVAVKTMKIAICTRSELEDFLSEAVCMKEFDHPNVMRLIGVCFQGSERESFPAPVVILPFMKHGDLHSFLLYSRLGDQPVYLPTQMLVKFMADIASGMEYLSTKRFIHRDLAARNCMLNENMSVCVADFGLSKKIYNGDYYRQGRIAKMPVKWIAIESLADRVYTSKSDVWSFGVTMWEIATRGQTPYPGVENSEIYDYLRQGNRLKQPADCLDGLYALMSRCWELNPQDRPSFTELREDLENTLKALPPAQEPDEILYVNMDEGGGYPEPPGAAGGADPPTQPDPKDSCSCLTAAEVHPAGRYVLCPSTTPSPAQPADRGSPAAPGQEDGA

Homo sapiens = species: Homo sapiens; experiment: Selectivity ratio of pIC50 for His6/TEV fused-GST-tagged Flt3 (unknown origin) (H564 to S993 residues) to pIC50 for GST-tagged AXL (unknown origin) ([…] residues)

CNC(=O)c1sc(N2CC3CC2(CNC(=O)c2c[nH]c4ncc(Cl)cc24)C3)nc1C(F)(F)F
inhibition [1]: > 75% | inhibition [2]: > 75% | Ratio pIC50 (Homo sapiens): > 60
